Earlier results in US20210319872A1, “DRUG AND DEVICE COMBINATION PRODUCTS WITH IMPROVED SAFETY AND EFFICACY PROFILES” (priority 2016, published 2021).
Where two headings read alike, the source gives them in different places. One block for each compound: values may come before it.

[1] = Myelodysplastic syndrome, grade 3 or 4

Structure (SMILES): COc1cccc(C2(O)CCCCC2CN(C)C)c1 (stereo not shown) [Tramadol (Ultram)]
Anaphylactoid reaction (in vivo): Immunologic: Anaphylactoid reaction (less than 1%) | Constipation (in vivo): Gastrointestinal: Constipation (10% to 46%), Nausea (13% to | Dizziness (in vivo): Neurologic: Dizziness (7% to 33%), Headache (3% to 32%), | Dyspnea (in vivo): Respiratory: Dyspnea (less than 5%), Respiratory depression | Flushing (in vivo): Dermatologic: Flushing (7.7% to 15.8%), Pruritus (3% to 11.9%) | Headache (in vivo): Neurologic: Dizziness (7% to 33%), Headache (3% to 32%), | Insomnia (in vivo): Insomnia (1% to 10.9%), Somnolence (4% to 25%) | Myocardial infarction (in vivo): Cardiovascular: Myocardial infarction (0.5% to less than 1%) | Pancreatitis (in vivo): Gastrointestinal: Pancreatitis (0.5% to less than 1%) | Pruritus (in vivo): Dermatologic: Flushing (7.7% to 15.8%), Pruritus (3% to 11.9%) | Serotonin syndrome (in vivo): Other: Serotonin syndrome (less than 1%) | Somnolence (in vivo): Insomnia (1% to 10.9%), Somnolence (4% to 25%) | Vomiting (in vivo): 40%), Vomiting (3% to 17%), Xerostomia (1% to 10%) | Xerostomia (in vivo): 40%), Vomiting (3% to 17%), Xerostomia (1% to 10%)

Structure (SMILES): CN(C)CCC[C@@]1(c2ccc(F)cc2)OCc2cc(C#N)ccc21 [Escitalopram (Lexapro)]
Abdominal pain (in vivo): Gastrointestinal: Abdominal pain (2%), Constipation (3% to 6%), | Constipation (in vivo): Gastrointestinal: Abdominal pain (2%), Constipation (3% to 6%), | Diaphoresis (in vivo): Dermatologic: Diaphoresis (3% to 8%) | Diarrhea (in vivo): Diarrhea (6% to 14%), Indigestion (2% to 6%), Nausea (15% to | Disorder of ejaculation (in vivo): Reproductive: Disorder of ejaculation (9% to 14%), Erectile | Dizziness (in vivo): Neurologic: Dizziness (4% to 7%), Headache (24%), Insomnia (7% | Erectile dysfunction (in vivo): dysfunction (3%), Orgasm incapacity (females, 2% to 6%), | Fatigue (in vivo): Other: Fatigue (5% to 8%) | Headache (in vivo): Neurologic: Dizziness (4% to 7%), Headache (24%), Insomnia (7% | Indigestion (in vivo): Diarrhea (6% to 14%), Indigestion (2% to 6%), Nausea (15% to | Insomnia (in vivo): Neurologic: Dizziness (4% to 7%), Headache (24%), Insomnia (7% | Orgasm incapacity (in vivo): dysfunction (3%), Orgasm incapacity (females, 2% to 6%), | Reduced libido (in vivo): Reduced libido (3% to 7%) | Somnolence (in vivo): to 14%), Somnolence (4% to 13%) | Vomiting (in vivo): ≤ 18%), Vomiting (up to 3%), Xerostomia (4% to 9%) | Xerostomia (in vivo): 18%), Vomiting (up to 3%), Xerostomia (4% to 9%)

Structure (SMILES): CCCCc1ncc(/C=C(\Cc2cccs2)C(=O)O)n1Cc1ccc(C(=O)O)cc1 [Eprosartan (Teveten)]
Dizziness (in vivo): Neurologic: Dizziness (3.8%) | Fatigue (in vivo): Other: Fatigue (1.4%) | Myalgia (in vivo): Musculoskeletal: Myalgia (1.9%) | Neutropenia (in vivo): Hematologic: Neutropenia (1.3%) | Serious side effects, listed without incidence or only as rare (in vivo): Dermatologic: Edema of face (rare)

Cataract, Grade 3 or 4 (Multiple myeloma, grade 3.4): 1.4% (grade 3.4)) | Multiple organ failure [1]: 1.4% | Pulmonary hypertension [1]: 1.4% | Myocardial infarction (in vivo): < 5% | Anemia, All grades (mantle cell lymphoma): 31% | Anemia, Grade 3 or 4 (mantle cell lymphoma): 11% | Arthralgia (mantle cell lymphoma): 8% | Asthenia (mantle cell lymphoma): 14% | Backache (mantle cell lymphoma): 13% | Constipation (mantle cell lymphoma): 16% | Cough (mantle cell lymphoma): 28% | Diarrhea (mantle cell lymphoma): 31% | Fatigue (mantle cell lymphoma): 34% | Fever (mantle cell lymphoma): 23% | Hypokalemia (mantle cell lymphoma): 13% | Neutropenia, All grades (mantle cell lymphoma): 49% | Neutropenia, Grade 3 or 4 (mantle cell lymphoma): 43% | Peripheral edema (mantle cell lymphoma): 16% | Pruritus (mantle cell lymphoma): 17% | Rash (mantle cell lymphoma): cell lymphoma, 22%) | Thrombocytopenia, All grades (mantle cell lymphoma): 36%) | Thrombocytopenia, Grade 3 or 4 (mantle cell lymphoma): 28% | Tumor flare (mantle cell lymphoma): 10% | Upper respiratory infection (mantle cell lymphoma): 13% | Atrial fibrillation, Grade 3 or 4 (multiple myeloma): 3.7% | Cramp (multiple myeloma): 33.4% | Rash (multiple myeloma): ≤ 26.1% | Tremor (multiple myeloma): 21.2% | Arthralgia (myelodysplastic syndrome): 21.6% | Asthenia (myelodysplastic syndrome): 14.9% | Backache (myelodysplastic syndrome): 20.9% | Constipation (myelodysplastic syndrome): 23.6% | Cough (myelodysplastic syndrome): 19.6% | Cramp (myelodysplastic syndrome): 18.2% | Diarrhea (myelodysplastic syndrome): 48.6% | Epistaxis (myelodysplastic syndrome): 14.9% | Fatigue (myelodysplastic syndrome): 31.1% | Fever (myelodysplastic syndrome): 20.9% | Insomnia (myelodysplastic syndrome): 10.1% | Nasopharyngitis (myelodysplastic syndrome): 23% | Neutropenia, All grades (myelodysplastic syndrome): 58.8% | Neutropenia, Grade 3 or 4 (myelodysplastic syndrome): 53.4% | Peripheral edema (myelodysplastic syndrome): 20.3% | Pneumonia (myelodysplastic syndrome): 11.5% | Pruritus (myelodysplastic syndrome): 41.9% | Rash (myelodysplastic syndrome): 35.8% | Upper respiratory infection (myelodysplastic syndrome): 14.9%
Structure (SMILES): Nc1cccc2c1CN(C1CCC(=O)NC1=O)C2=O (stereo not shown) [Revlimid]
Pneumonitis [1]: syndrome, grade 3 or 4, 1.4%), Pulmonary embolism, Grade 3 or 4 | Hepatotoxicity (in vivo): 15% | Common side effect, Other (listed without frequency): Infectious disease | Serious side effect, Dermatologic (listed without frequency): Stevens-Johnson syndrome | Serious side effect, Hematologic (listed without frequency): Thrombosis | Serious side effect, Hepatic (listed without frequency): Liver failure | Serious side effect, Other (listed without frequency): Other: Angioedema, Multiple organ failure (Myelodysplastic | Serious side effect, Renal (listed without frequency): Renal: Interstitial nephritis, acute | Dyspnea (mantle cell lymphoma): 16.9%; mantle cell lymphoma, 18%), Epistaxis (Myelodysplastic | Hypoxia (mantle cell lymphoma): Respiratory: Hypoxia (Mantle cell lymphoma, 2%), Pleural | Pleural effusion (mantle cell lymphoma): effusion (Mantle cell lymphoma, 7%), Pneumonia (Multiple | Pneumonia (mantle cell lymphoma): mantle cell lymphoma, 14%), Pneumonitis (Myelodysplastic | Arthralgia (multiple myeloma): Musculoskeletal: Arthralgia (Multiple myeloma, 19%; | Asthenia (multiple myeloma): Neurologic: Asthenia (Multiple myeloma, 28.2%; myelodysplastic | Blurred vision (multiple myeloma): Ophthalmic: Blurred vision (Multiple myeloma, 17.3%) | Cataract, Grade 3 or 4 (multiple myeloma): Ophthalmic: Cataract, Grade 3 or 4 (Multiple myeloma, 9.6%; | Congestive heart failure, Grade 3 or 4 (multiple myeloma): failure, Grade 3 or 4 (multiple myeloma, 1.4%), Myocardial | Constipation (multiple myeloma): Gastrointestinal: Constipation (Multiple myeloma, 40.5%; | Cough (multiple myeloma): Respiratory: Cough (Multiple myeloma, 22.7%; myelodysplastic | Insomnia (multiple myeloma): Insomnia (Multiple myeloma, 27.6%; myelodysplastic syndrome, | Peripheral edema (multiple myeloma): Cardiovascular: Peripheral edema (multiple myeloma, 26.3%; | Pruritus (multiple myeloma): Dermatologic: Pruritus (Multiple myeloma, 7.6%; myelodysplastic | Upper respiratory infection (multiple myeloma): 15.5%), Upper respiratory infection (Multiple myeloma, 24.6%; | Anemia, All grades (myelodysplastic syndrome): 43.8%; myelodysplastic syndrome, 11.5%; mantle cell lymphoma, | Anemia, Grade 3 or 4 (myelodysplastic syndrome): 18.2%; myelodysplastic syndrome, 6.1%; mantle cell lymphoma, | Hypokalemia (myelodysplastic syndrome): 17.1%; myelodysplastic syndrome, 10.8%; mantle cell lymphoma, | Thrombocytopenia, All grades (myelodysplastic syndrome): 21.5%; myelodysplastic syndrome, 61.5%; mantle cell lymphoma, | Thrombocytopenia, Grade 3 or 4 (myelodysplastic syndrome): 12.2%; myelodysplastic syndrome, 50%; mantle cell lymphoma,

Structure (SMILES): CCC1(CCC(C)C)C(=O)NC(=O)NC1=O [Amytal (amobarbital)]
Agranulocytosis (in vivo): Hematologic: Agranulocytosis (rare), Megaloblastic anemia, With | Common side effect, Neurologic (in vivo): Neurologic: Confusion, Dizziness, Headache, Somnolence | Injury of liver, With prolonged use (in vivo): Hepatic: Injury of liver, With prolonged use (rare) | Megaloblastic anemia, With prolonged use (in vivo): prolonged use (rare) | Serious side effect, Respiratory (in vivo): Respiratory: Apnea, Hypoventilation | Stevens-Johnson syndrome (in vivo): Dermatologic: Stevens-Johnson syndrome (rare)

Structure (SMILES): CC1(C)O[C@@H]2[C@@H](CO[C@@]3(COS(N)(=O)=O)OC(C)(C)O[C@@H]23)O1 [Trokendi XR]
Hyperammonemia (Adolescents): Endocrine metabolic: Hyperammonemia (Adolescents, 26%), | Serious side effect, Hepatic (listed without frequency): Hepatic: Liver failure | Serious side effect, Neurologic (listed without frequency): Neurologic: Drug-induced encephalopathy | Serious side effect, Psychiatric (listed without frequency): Psychiatric: Suicidal thoughts | Flushing (pediatrics): Dermatologic: Flushing (pediatrics, 5%)
